Measurements: patent US9006450B2 (Boehringer Ingelheim International GmbH, priority 2010, dated 2015)

Molecular target: T1, human ACC2 (Homo sapiens, UniProt O00763)
T1 construct: made in house; host or cells: insect cells (baculoviral expression system)
Assay: ACC2 assay, spectrophotometric 384 well assay (NADH-linked, coupled lactate dehydrogenase/pyruvate kinase)
Type: biochemical
Details: ACC2 assay, hACC2 construct lacking 128 N-terminal amino acids, 25° C., 340 nm; read-out: IC50
Procedure, shortened: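 ADP output tracked via pyruvate kinase/lactate dehydrogenase NADH oxidation, slope at 340 nm over 15 min, 25° C, with 500 μM ATP and 200 μM each acetyl-CoA and NADH. Enzyme: insect-cell-expressed human ACC2, N-terminal 128 residues deleted; pH 7.5 Tris with citrate, KHCO3. IC50 from four-parameter regression versus vehicle and no-acetyl-CoA controls.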

T1 sequence (O00763 129-2458 limits assumed): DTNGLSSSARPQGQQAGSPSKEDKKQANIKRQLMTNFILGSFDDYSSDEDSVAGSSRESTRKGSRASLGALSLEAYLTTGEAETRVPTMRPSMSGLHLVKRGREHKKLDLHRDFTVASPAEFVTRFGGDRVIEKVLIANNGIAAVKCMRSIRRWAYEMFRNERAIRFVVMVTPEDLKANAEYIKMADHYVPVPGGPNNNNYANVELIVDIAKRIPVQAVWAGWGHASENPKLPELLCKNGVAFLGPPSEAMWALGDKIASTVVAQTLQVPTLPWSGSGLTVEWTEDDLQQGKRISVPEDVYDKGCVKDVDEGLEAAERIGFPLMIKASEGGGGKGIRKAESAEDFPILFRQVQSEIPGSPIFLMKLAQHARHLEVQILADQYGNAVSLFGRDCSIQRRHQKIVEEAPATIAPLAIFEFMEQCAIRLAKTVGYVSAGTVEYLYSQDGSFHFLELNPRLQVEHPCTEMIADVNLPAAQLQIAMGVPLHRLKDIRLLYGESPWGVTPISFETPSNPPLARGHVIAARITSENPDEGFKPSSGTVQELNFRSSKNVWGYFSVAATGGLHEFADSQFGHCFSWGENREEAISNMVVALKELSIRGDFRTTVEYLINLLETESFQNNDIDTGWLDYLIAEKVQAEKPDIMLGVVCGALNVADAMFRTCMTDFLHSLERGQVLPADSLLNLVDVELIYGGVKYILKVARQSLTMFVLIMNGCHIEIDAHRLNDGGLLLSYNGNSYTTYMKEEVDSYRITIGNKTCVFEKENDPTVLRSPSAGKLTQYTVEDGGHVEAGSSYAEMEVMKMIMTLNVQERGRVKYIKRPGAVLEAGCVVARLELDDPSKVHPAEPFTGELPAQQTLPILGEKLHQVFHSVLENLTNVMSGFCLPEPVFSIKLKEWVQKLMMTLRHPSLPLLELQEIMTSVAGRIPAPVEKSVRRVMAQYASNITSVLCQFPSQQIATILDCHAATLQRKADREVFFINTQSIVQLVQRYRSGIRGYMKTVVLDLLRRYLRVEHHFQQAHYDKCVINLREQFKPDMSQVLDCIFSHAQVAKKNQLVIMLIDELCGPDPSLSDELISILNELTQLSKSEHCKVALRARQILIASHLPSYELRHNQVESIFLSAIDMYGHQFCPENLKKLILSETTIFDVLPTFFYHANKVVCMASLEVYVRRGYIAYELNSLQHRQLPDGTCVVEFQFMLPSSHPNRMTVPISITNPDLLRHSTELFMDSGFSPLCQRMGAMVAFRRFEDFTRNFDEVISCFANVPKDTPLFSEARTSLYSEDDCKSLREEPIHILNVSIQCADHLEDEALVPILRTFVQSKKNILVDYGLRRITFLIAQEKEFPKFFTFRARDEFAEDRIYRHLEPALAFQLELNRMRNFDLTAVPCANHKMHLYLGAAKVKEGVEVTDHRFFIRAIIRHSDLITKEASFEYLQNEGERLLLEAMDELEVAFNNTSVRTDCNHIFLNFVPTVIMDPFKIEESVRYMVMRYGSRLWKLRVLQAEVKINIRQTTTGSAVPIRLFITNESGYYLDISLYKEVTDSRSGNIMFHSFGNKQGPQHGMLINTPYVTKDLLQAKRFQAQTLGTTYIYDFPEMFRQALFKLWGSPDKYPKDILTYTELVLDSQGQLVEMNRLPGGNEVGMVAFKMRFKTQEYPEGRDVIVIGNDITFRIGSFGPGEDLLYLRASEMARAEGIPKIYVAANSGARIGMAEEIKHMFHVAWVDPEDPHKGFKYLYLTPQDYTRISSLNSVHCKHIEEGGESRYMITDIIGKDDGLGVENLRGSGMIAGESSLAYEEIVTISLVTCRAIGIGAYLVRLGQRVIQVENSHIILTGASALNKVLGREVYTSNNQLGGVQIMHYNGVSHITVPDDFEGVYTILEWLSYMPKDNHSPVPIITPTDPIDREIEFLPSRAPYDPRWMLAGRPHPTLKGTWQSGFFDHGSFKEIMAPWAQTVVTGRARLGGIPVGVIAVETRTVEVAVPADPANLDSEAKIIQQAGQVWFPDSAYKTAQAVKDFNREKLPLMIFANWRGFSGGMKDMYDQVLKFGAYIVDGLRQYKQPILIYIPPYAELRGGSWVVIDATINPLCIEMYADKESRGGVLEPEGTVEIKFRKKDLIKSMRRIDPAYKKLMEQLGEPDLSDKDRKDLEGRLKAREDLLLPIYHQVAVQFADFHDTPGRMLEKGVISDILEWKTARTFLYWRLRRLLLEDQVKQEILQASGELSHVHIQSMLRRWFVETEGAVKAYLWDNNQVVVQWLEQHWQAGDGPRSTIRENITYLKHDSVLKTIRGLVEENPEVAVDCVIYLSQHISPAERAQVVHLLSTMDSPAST

IC50 [nM]	SMILES
370	CC(=O)N[C@@H](C)c1ccc(C2CCN(c3cccc(OCCC(C)C)c3)CC2)cc1 [Example 9.1, (S)—N-[1-(4-{1-[3-(Isopentyloxy)-phenyl]-piperidin-4-yl}-phenyl)-ethyl]-acetamide]
300	CCCC(C)Oc1cccc(N2CCC(c3ccc([C@H](C)NC(C)=O)cc3)CC2)c1 (stereo partly shown) [Example 9.2]
1400	CC(=O)N[C@@H](C)c1ccc(C2CCN(c3cccc(OC4CCCOC4)c3)CC2)cc1 (stereo partly shown) [Example 9.3]
40	CC(=O)N[C@@H](C)c1ccc(C2CCN(c3cccc(OCC(C)(C)C)c3)CC2)cc1 [Example 9.4]
260	C=CCOc1cccc(N2CCC(c3ccc([C@H](C)NC(C)=O)cc3)CC2)c1 [Example 9.5]
130	CC(=O)N[C@@H](C)c1ccc(C2CCN(c3cccc(OC4CCCCC4)c3)CC2)cc1 [Example 9.6]
560	COCCOc1cccc(N2CCC(c3ccc([C@H](C)NC(C)=O)cc3)CC2)c1 [Example 9.7]
200	CC#CCOc1cccc(N2CCC(c3ccc([C@H](C)NC(C)=O)cc3)CC2)c1 [Example 9.8]
210	COCCCOc1cccc(N2CCC(c3ccc([C@H](C)NC(C)=O)cc3)CC2)c1 [Example 9.9]
530	C=CCCOc1cccc(N2CCC(c3ccc([C@H](C)NC(C)=O)cc3)CC2)c1 [Example 9.10]
170	CC(=O)N[C@@H](C)c1ccc(C2CCN(c3cccc(OCc4cc(C)on4)c3)CC2)cc1 [Example 9.11]
250	CC(=O)N[C@@H](C)c1ccc(C2CCN(c3cccc(OCC4CCC4)c3)CC2)cc1 [Example 9.12]
570	CC(=O)N[C@@H](C)c1ccc(C2CCN(c3cccc(OCC4CCOCC4)c3)CC2)cc1 [Example 9.13]
270	CC(=O)N[C@@H](C)c1ccc(C2CCN(c3cccc(OCCOC4CC4)c3)CC2)cc1 [Example 9.14]
370	CC(=O)N[C@@H](C)c1ccc(C2CCN(c3cccc(OCC4CCCCO4)c3)CC2)cc1 (stereo partly shown) [Example 9.15]
690	CCC(CC)Oc1cccc(N2CCC(c3ccc([C@H](C)NC(C)=O)cc3)CC2)c1 [Example 9.16]
550	CC(=O)N[C@@H](C)c1ccc(C2CCN(c3cccc(OCc4ccccc4)c3)CC2)cc1 [Example 9.17]
150	CC(=O)N[C@@H](C)c1ccc(C2CCN(c3cccc(OC(C)c4ccccc4)c3)CC2)cc1 (stereo partly shown) [Example 9.18]
140	CCCC(C)Oc1ccc(N2CCC(c3ccc([C@H](C)NC(C)=O)cc3)CC2)cc1 (stereo partly shown) [Example 9.19]

IC50 [nM]	SMILES
90	CC(=O)N[C@@H](C)c1ccc(C2CCN(c3ccc(OCCC(C)C)cc3)CC2)cc1 [Example 9.20]
100	CC(=O)N[C@@H](C)c1ccc(C2CCN(c3ccc(OCC(C)(C)C)cc3)CC2)cc1 [Example 9.21]
160	C=CCOc1ccc(N2CCC(c3ccc([C@H](C)NC(C)=O)cc3)CC2)cc1 [Example 9.22]
200	CC(=O)N[C@@H](C)c1ccc(C2CCN(c3ccc(OC4CCCCC4)cc3)CC2)cc1 [Example 9.23]
470	COCCOc1ccc(N2CCC(c3ccc([C@H](C)NC(C)=O)cc3)CC2)cc1 [Example 9.24]
1100	CC#CCOc1ccc(N2CCC(c3ccc([C@H](C)NC(C)=O)cc3)CC2)cc1 [Example 9.25]
220	COCCCOc1ccc(N2CCC(c3ccc([C@H](C)NC(C)=O)cc3)CC2)cc1 [Example 9.26]
70	C=CCCOc1ccc(N2CCC(c3ccc([C@H](C)NC(C)=O)cc3)CC2)cc1 [Example 9.27]
780	CC(=O)N[C@@H](C)c1ccc(C2CCN(c3ccc(OCc4cc(C)on4)cc3)CC2)cc1 [Example 9.28]
60	CC(=O)N[C@@H](C)c1ccc(C2CCN(c3ccc(OCC4CCC4)cc3)CC2)cc1 [Example 9.29]
2300	CC(=O)N[C@@H](C)c1ccc(C2CCN(c3ccc(OCC4CCOCC4)cc3)CC2)cc1 [Example 9.30]
4800	CC(=O)N[C@@H](C)c1ccc(C2CCN(c3ccc(OCCOC4CC4)cc3)CC2)cc1 [Example 9.31]
990	CC(=O)N[C@@H](C)c1ccc(C2CCN(c3ccc(OCC4CCCCO4)cc3)CC2)cc1 (stereo partly shown) [Example 9.32]
120	CCC(CC)Oc1ccc(N2CCC(c3ccc([C@H](C)NC(C)=O)cc3)CC2)cc1 [Example 9.33]
150	CC(=O)N[C@@H](C)c1ccc(C2CCN(c3ccc(OCc4ccccc4)cc3)CC2)cc1 [Example 9.34]
210	CC(=O)N[C@@H](C)c1ccc(C2CCN(c3ccc(OC(C)c4ccccc4)cc3)CC2)cc1 (stereo partly shown) [Example 9.35]
3300	CC(=O)N[C@@H](C)c1ccc(C2CCN(c3ccc(OCC4CCC4)c(C#N)c3)CC2)cc1 [Example 9.36]
690	CC(=O)N[C@@H](C)c1ccc(C2CCN(c3ccc(OCC4CCC4)c(C)c3)CC2)cc1 [Example 9.37]

Second part, the molecule before the results:

SMILES	IC50 [nM]
CC(=O)N[C@@H](C)c1ccc(C2CCN(c3ccc(OCC(C)C)c(F)c3)CC2)cc1 [Example 8.28]	150
COc1cc(N2CCC(c3ccc([C@H](C)NC(C)=O)cc3)CC2)ccc1OCC(C)C [Example 8.29]	890
CC(=O)N[C@@H](C)c1ccc(C2CCN(c3ccc(OCC(C)C)c(Cl)c3)CC2)cc1 [Example 8.30]	160
CCCOc1ccc(N2CCC(c3ccc([C@H](C)NC(C)=O)cc3)CC2)cc1C [Example 8.31]	1200
CCCOc1ccc(N2CCC(c3ccc([C@H](C)NC(C)=O)cc3)CC2)cc1C#N [Example 8.32]	3200
CCCOc1ccc(N2CCC(c3ccc([C@H](C)NC(C)=O)cc3)CC2)cc1OC [Example 8.33]	3500
CCCOc1ccc(N2CCC(c3ccc([C@H](C)NC(C)=O)cc3)CC2)cc1Cl [Example 8.34]	260
CC(=O)N[C@@H](C)c1ccc(C2CCN(c3ccc(OC4CCCC4)c(C)c3)CC2)cc1 [Example 8.35]	490
CC(=O)N[C@@H](C)c1ccc(C2CCN(c3ccc(OC4CCCC4)c(C#N)c3)CC2)cc1 [Example 8.36]	2200
CC(=O)N[C@@H](C)c1ccc(C2CCN(c3ccc(OC4CCCC4)c(F)c3)CC2)cc1 [Example 8.37]	660
COc1cc(N2CCC(c3ccc([C@H](C)NC(C)=O)cc3)CC2)ccc1OC1CCCC1 [Example 8.38]	1200
CC(=O)N[C@@H](C)c1ccc(C2CCN(c3ccc(OC4CCCC4)c(Cl)c3)CC2)cc1 [Example 8.39]	110
CCCCOc1ccc(N2CCC(c3ccc([C@H](C)NC(C)=O)cc3)CC2)cc1C [Example 8.40]	1400
CCCCOc1ccc(N2CCC(c3ccc([C@H](C)NC(C)=O)cc3)CC2)cc1C#N [Example 8.41]	4200
CCCCOc1ccc(N2CCC(c3ccc([C@H](C)NC(C)=O)cc3)CC2)cc1F [Example 8.42]	90
CCCCOc1ccc(N2CCC(c3ccc([C@H](C)NC(C)=O)cc3)CC2)cc1OC [Example 8.43]	2100
CCCCOc1ccc(N2CCC(c3ccc([C@H](C)NC(C)=O)cc3)CC2)cc1Cl [Example 8.44]	290
COc1ccc(N2CCC(c3ccc([C@H](C)NC(C)=O)cc3)CC2)cc1C#N [Example 8.45]	7000
COc1ccc(N2CCC(c3ccc([C@H](C)NC(C)=O)cc3)CC2)cc1Cl [Example 8.46]	1000
CC(=O)N[C@@H](C)c1ccc(C2CCN(c3ccc(OCC4CCO4)c(C)c3)CC2)cc1 (stereo partly shown) [Example 8.47]	2600

SMILES	IC50 [nM]
CC(=O)N[C@@H](C)c1ccc(C2CCN(c3ccc(OCC4CCO4)c(F)c3)CC2)cc1 (stereo partly shown) [Example 8.48]	1600
COc1cc(N2CCC(c3ccc([C@H](C)NC(C)=O)cc3)CC2)ccc1OCC1CCO1 (stereo partly shown) [Example 8.49]	26600
CC(=O)N[C@@H](C)c1ccc(C2CCN(c3ccc(OCC4CCO4)c(Cl)c3)CC2)cc1 (stereo partly shown) [Example 8.50]	1100
CCC(C)Oc1ccc(N2CCC(c3ccc([C@H](C)NC(C)=O)cc3)CC2)cc1C (stereo partly shown) [Example 8.51]	760
CCC(C)Oc1ccc(N2CCC(c3ccc([C@H](C)NC(C)=O)cc3)CC2)cc1C#N (stereo partly shown) [Example 8.52]	3000
CCC(C)Oc1ccc(N2CCC(c3ccc([C@H](C)NC(C)=O)cc3)CC2)cc1F (stereo partly shown) [Example 8.53]	300
CCC(C)Oc1ccc(N2CCC(c3ccc([C@H](C)NC(C)=O)cc3)CC2)cc1OC (stereo partly shown) [Example 8.54]	1500
CCC(C)Oc1ccc(N2CCC(c3ccc([C@H](C)NC(C)=O)cc3)CC2)cc1Cl (stereo partly shown) [Example 8.55]	300
CCCC(C)Oc1ccc(N2CCC(c3ccc([C@H](C)NC(C)=O)cc3)CC2)cc1C (stereo partly shown) [Example 8.56]	1000
CCCC(C)Oc1ccc(N2CCC(c3ccc([C@H](C)NC(C)=O)cc3)CC2)cc1C#N (stereo partly shown) [Example 8.57]	3200
CCCC(C)Oc1ccc(N2CCC(c3ccc([C@H](C)NC(C)=O)cc3)CC2)cc1F (stereo partly shown) [Example 8.58]	370
CCCC(C)Oc1ccc(N2CCC(c3ccc([C@H](C)NC(C)=O)cc3)CC2)cc1OC (stereo partly shown) [Example 8.59]	840
CCCC(C)Oc1ccc(N2CCC(c3ccc([C@H](C)NC(C)=O)cc3)CC2)cc1Cl (stereo partly shown) [Example 8.60]	180
CCOc1ccc(N2CCC(c3ccc([C@H](C)NC(C)=O)cc3)CC2)cc1Cl [Example 8.61]	300
CCCOc1ccc(N2CCC(c3ccc([C@H](C)NC(C)=O)cc3)CC2)cc1F [Example 8.62]	200
CC(=O)N[C@@H](C)c1ccc(C2CCN(c3ccc(OCCC4CC4)cc3)CC2)cc1 [Example 8.63]	100
C/C=C/CCOc1ccc(N2CCC(c3ccc([C@H](C)NC(C)=O)cc3)CC2)cc1 [Example 8.64]	120
CC(=O)N[C@@H](C)c1ccc(C2CCN(c3ccc(OCC/C=C/C4CC4)cc3)CC2)cc1 [Example 8.65]	220
CC(=O)N[C@@H](C)c1ccc(C2CCN(c3ccc(OCC4CC4(F)F)cc3)CC2)cc1 (stereo partly shown) [Example 8.66]	60
